In patent publication US10952435B2, “Pyridine-2-carboxamides as nematocides” (SYNGENTA PARTICIPATIONS AG, priority 2013, dated 2021):

melting point | SMILES
95 °C | O=C(NCCc1ccc(C(F)(F)F)cc1F)c1ncccc1C(F)(F)F [A.001, 3-Trifluoromethyl-pyridine-2-carboxylic acid [2-(2-fluoro-4-trifluoromethyl-phenyl)-ethyl]-amide]
69 °C | O=C(NCCc1ccc(Cl)cc1F)c1ncccc1C(F)(F)F [A.002, 3-Trifluoromethyl-pyridine-2-carboxylic acid [2-(4-chloro-2-fluoro-phenyl)-ethyl]-amide]
78 °C | O=C(NCCc1ccc(F)cc1F)c1ncccc1C(F)(F)F [A.005]
117 to 118 °C | Cc1cccnc1C(=O)NCC(F)(F)c1ccc(Cl)cc1Cl [A.009, N-[2-(2,4-dichlorophenyl)-2,2-difluoro-ethyl]-3-methyl-pyridine-2-carboxamide]
